Source: patent US20210253598A1, “ARYL ANNULATED MACROCYCLIC INDOLE DERIVATIVES” (priority 2017, published 2021)
Several values for one entry are separate records, joined by “and”; a condition that tells them apart may be missing. Equal values may be shown once. Where a name gives a salt, the structure may show the parent alone. Read-outs that look alike come from different tables or passages of the source.

Legend:
MCL-1 = MCL-1 (Homo sapiens, UniProt Q07820, K194A/K197A/R201A); assay: Protein-protein interaction assay MCL-1/Noxa BH3 peptide, TR-FRET (MCL-1 assay, Assay 1); assay type: binding; conditions: MCL-1 Assay [M] (median), MBP-MCL-1 / Noxa BH3 peptide
MCL-1, sequence (Q07820 173-321 K194A/K197A/R201A, looked up): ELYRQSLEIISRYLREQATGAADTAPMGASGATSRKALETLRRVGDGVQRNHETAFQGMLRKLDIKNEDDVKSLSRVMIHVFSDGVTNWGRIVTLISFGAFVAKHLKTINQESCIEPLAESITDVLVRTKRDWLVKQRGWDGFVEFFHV
Outline: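 TR-FRET competition between compounds and a biotin-PEG Noxa BH3 tracer for 1 nM MBP-MCL-1 (residues 173-321). Incubation was 1 h at 22 °C in the dark, then overnight at 4 °C, in 50 mM Tris pH 7 buffer with KF and DTT, after a 10-min compound pre-equilibration. Normalized ratios were fitted with a 4-parameter Hill equation to give IC50.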

A2780 = assay: Anti-proliferative effect in A2780 cells, CellTiter-Glo (Assay 7); assay type: cell-based; conditions: several values per example
Outline: (§1)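 Cells were plated and incubated overnight at 37 °C alongside a day 0 reference plate, then exposed to compound for 72 h. Viability was read by CellTiter-Glo luminescence, and IC50s were calculated using day 0 values and DMSO controls as references.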

SUDHL5 [1] = assay: Induction of cytotoxicity in SUDHL5 cells, CellTiter-Glo (Assay 6); assay type: cell-based
Outline: (§2)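 Run alongside apoptosis assays, this cytotoxicity measure used a 5-hour compound incubation at 37° C in humidified conditions, following overnight attachment. Cell viability was quantified by CellTiter-Glo luminescence.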

SUDHL5 [2] = assay: Induction of caspase-3/7 activity in SUDHL5 cells (Assay 4); assay type: cell-based
Outline: (§3)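 Luminescent Caspase-Glo 3/7 read-out in SUDHL5 and SUDHL10 cells after 3 h compound exposure at 37 °C, followed by 1 h reagent incubation.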

AMO-1 = assay: Anti-proliferative effect in AMO-1 cells, CellTiter-Glo (Assay 7); assay type: cell-based
Method: Assessment of the Anti-Proliferative Effect of Compounds in Different Cell Lines
The impact of compounds on the proliferation of different cell lines was assessed using the CellTiter-Glo® Luminescent Cell Viability reagent from Promega (G7573).
In parallel, cells were plated in a reference (day 0) plate for time zero determination. Cells were incubated in a humidified incubator at 37° C. overnight.
Rim wells were excluded. The cells were incubated for 72 hours in a humidified incubator at 37° C. The day 0 plate was measured by adding 30 μL/well of CTG solution (CellTiter-Glo® Luminescent Cell Viability reagent, Promega G7573) to time zero wells in the reference plate followed by a 10 minutes incubation and luminescence reading at 0.1 ms. using the PHERAstar FS microplate reader (BMG Labtech).
After 72 hours incubation, the treated plates were measured in the same way as the day 0 plate mentioned above. The Bella DRC Master Sheet was used to calculate IC50s, with CI=day 0 values and C0=DMSO control values.

MV-4-11 = assay: Anti-proliferative effect in MV-4-11 cells, CellTiter-Glo (Assay 7); assay type: cell-based; conditions: several values per example
Outline: as §1

SUDHL5 [3] = assay: Anti-proliferative effect in SUDHL5 cells, CellTiter-Glo (Assay 7); assay type: cell-based
Outline: as §1

SUDHL10 [4] = assay: Induction of caspase-3/7 activity in SUDHL10 cells (Assay 4); assay type: cell-based
Outline: as §3

SUDHL10 [5] = assay: Induction of cytotoxicity in SUDHL10 cells, CellTiter-Glo (Assay 6); assay type: cell-based
Outline: as §2

BCL-2 = BCL-2 (Homo sapiens, UniProt P10415); assay: Protein-protein interaction assay BCL-2/Bad BH3 peptide, TR-FRET (BCL-2 assay, Assay 3); assay type: binding; conditions: His-BCL-2 / Bad BH3 peptide, median
BCL-2, sequence (P10415 1-211): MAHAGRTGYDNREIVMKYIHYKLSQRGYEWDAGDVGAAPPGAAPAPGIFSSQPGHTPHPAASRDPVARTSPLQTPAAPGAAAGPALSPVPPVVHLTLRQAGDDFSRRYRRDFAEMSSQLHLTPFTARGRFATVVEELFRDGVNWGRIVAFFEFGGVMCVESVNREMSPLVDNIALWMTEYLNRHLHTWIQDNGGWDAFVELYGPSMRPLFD
Method: The dose-dependent inhibition by the compounds described in this invention of the interaction between BCL-2 and the BH3 domain of Bad (both human) was determined using a steady state binding competition assay with time-resolved fluorescence energy transfer (TR-FRET) readout. For that purpose BCL-2 (amino acids 1-211, C-terminal fused to a hexahistidine (6×His) tag (SEQ ID 5) and a synthetic Bad BH3-derived peptide of sequence Biotin-PEG2-PEG2-[sequence]-Nle-[sequence]-amide (SEQ ID 4) served as protein receptor and tracer ligand respectively. The recombinant BCL-2 protein (expressed in E. coli) was purchased from BPS Bioscience (San Diego, Calif., USA). The Bad BH3-derived peptide can be obtained from e.g. Biosyntan (Berlin, Germany).
For that, 100-fold concentrated DMSO solutions were prepared by serial dilutions (1:3.4) of a 2 mM stock solution in a clear, 384-well microtiter plate (Greiner Bio-One, Frickenhausen, Germany). From there, 50 nl were transferred in a dark test plate (Greiner Bio-One, Frickenhausen, Germany). The assay was initiated by addition of 2 μl of a 2,5-fold concentrated His-BCL-2 solution (usually for a 1 nM end concentration in 5 μl reaction volume) in aqueous assay buffer [50 mM Tris/HCl pH 7, 100 mM sodium chloride (NaCl), 50 mM potassium fluoride (KF), 0.005% Tween-20, 2 mM DTT, 0.1% bovine gamma globulin (BGG)] to the compounds in the assay plate. This was followed by a 10-minute incubation step at 22° C. for pre-equilibration of the putative complex between His-BCL-2 and the compounds.
The mixture was incubated in the dark for one hour at 22° C. and then overnight at 4° C. The formation of BCL-2/Bad complexes was determined by measuring the resonance energy transfer of the anti-His-Eu-cryptate antibody to the streptavidin-XL665 present in the reaction. For that purpose, the fluorescence emission at 620 nm and 665 nm after excitation at 330-350 nm was measured in a TR-FRET measuring instrument, for instance a Rubystar or a Pherastar (both from BMG Lab Technologies, Offenburg, Germany) or a Viewlux (Perkin-Elmer). The ratio of the emission at 665 nm and at 622 nm was used as indicator of the amount of BCL-2/Bad complexes present.
The resulting data (ratio) were normalized, taking 0% inhibition as the mean value of control measurements (usually 32 data points) where all reagents were included. In this case 50 nl DMSO were used instead of compounds. […] IC50 values were determined by regression analysis based on a 4 parameter equation (minimum, maximum, IC50, Hill; Y=Max+(Min−Max)/(1+(X/IC50)^Hill) using the Screener Software (Genedata).

BCL-XL = BCL-XL (Homo sapiens, UniProt Q07817); assay: Protein-protein interaction assay BCL-XL/Bad BH3 peptide, TR-FRET (BCL-XL assay, Assay 2); assay type: binding; conditions: His-BCL-XL / Bad BH3 peptide, median
BCL-XL, sequence (Q07817 1-212): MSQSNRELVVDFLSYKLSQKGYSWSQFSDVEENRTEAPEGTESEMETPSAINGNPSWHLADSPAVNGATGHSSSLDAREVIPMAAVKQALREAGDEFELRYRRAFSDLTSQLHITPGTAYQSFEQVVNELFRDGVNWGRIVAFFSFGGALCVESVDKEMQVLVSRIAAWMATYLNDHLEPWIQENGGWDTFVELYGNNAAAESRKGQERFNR

[6] = Homo sapiens, A2780, 72 h, A2780, 72 hours incubation, CellTiter-Glo, read-out: Antiproli A2780
[7] = Homo sapiens, SU-DHL-5, 3 h, SUDHL5, 3 hours treatment, Caspase-Glo 3/7, median, read-out: Caspase SUDHL5 [M] (median)
[8] = Homo sapiens, AMO1, 72 h, AMO-1, 72 hours incubation, CellTiter-Glo; several values per example; read-out: Antiproli AMO-1
[9] = Homo sapiens, MV4-11, 72 h, MV-4-11, 72 hours incubation, CellTiter-Glo, read-out: Antiproli MV-4-11
[10] = Homo sapiens, SU-DHL-5, 72 h, SUDHL5, 72 hours incubation, CellTiter-Glo, median, read-out: Antiproli SUDHL5 [M] (median)
[11] = Homo sapiens, SU-DHL10, 3 h, SUDHL10, 3 hours treatment, Caspase-Glo 3/7, median, read-out: Caspase SUDHL10 [M] (median)
[12] = Homo sapiens, SU-DHL10, 5 h, SUDHL10, 5 hours incubation, median, read-out: Cytotox SUDHL10 [M] (median)
[13] = read-out: Antiproli A2780, A2780, 72 hours incubation, CellTiter-Glo
[14] = SUDHL5, 5 hours incubation, median, read-out: Cytotox SUDHL5 [M] (median)
[15] = read-out: Caspase SUDHL5 [M] (median), SUDHL5, 3 hours treatment, Caspase-Glo 3/7
[16] = read-out: Antiproli AMO-1; AMO-1, 72 hours incubation, CellTiter-Glo; several values per example
[17] = read-out: Antiproli MV-4-11, MV-4-11, 72 hours incubation, CellTiter-Glo
[18] = read-out: Antiproli SUDHL5 [M] (median), SUDHL5, 72 hours incubation, CellTiter-Glo
[19] = read-out: Caspase SUDHL10 [M] (median), SUDHL10, 3 hours treatment, Caspase-Glo 3/7
[20] = SUDHL10, 5 hours incubation, median, read-out: Cytotox SUDHL10 [M] (median)
[21] = SUDHL5, 3 hours treatment, Caspase-Glo 3/7, median, read-out: Caspase SUDHL5 [M] (median)
[22] = SUDHL10, 3 hours treatment, Caspase-Glo 3/7, median, read-out: Caspase SUDHL10 [M] (median)

| Structure (SMILES) | IC50 (MCL-1) | IC50 (A2780; [13]) | IC50 (SUDHL5 [1]; [14]) | EC50 (SUDHL5 [2]; [15]) | IC50 (AMO-1; [16]) | IC50 (MV-4-11; [17]) | IC50 (SUDHL5 [3]; [18]) | EC50 (SUDHL10 [4]; [19]) | IC50 (SUDHL10 [5]; [20]) | also measured |
| --- | --- | --- | --- | --- | --- | --- | --- | --- | --- | --- |
| CCc1c2c(nn1C)COCc1ccccc1Cn1c(C(=O)O)c(CCCOc3cccc4cc(F)ccc34)c3ccc(Cl)c-2c31 (racemic) [Example 54, (rac)-3-Chloro-4-ethyl-17-{3-[(6-fluoronaphthalen-1-yl)oxy]propyl}-5-methyl-5,7,9,14-tetrahydroindolo[7,1-fg]pyrazolo[3,4-d][2,8]benzoxazacycloundecine-16-carboxylic Acid] | 8.3e-10 M |  |  |  |  |  |  |  |  | IC50 (A2780; [6]): 6.59e-06 M; IC50 (SUDHL5 [1]; Homo sapiens, SU-DHL-5, 5 h, SUDHL5, 5 hours incubation, median, read-out: Cytotox SUDHL5 [M] (median)): 9.3e-07 M; EC50 (SUDHL5 [2]; [7]): 8.4e-07 M; IC50 (AMO-1; [8]): 1.77 µM; IC50 (MV-4-11; [9]): 3.83e-06 M; IC50 (SUDHL5 [3]; [10]): 1.4e-06 M; EC50 (SUDHL10 [4]; [11]): 1.8e-06 M; IC50 (SUDHL10 [5]; [12]): 2.6e-06 M |
| CCc1c2c(nn1C)COCc1ccccc1Cn1c(C(=O)O)c(CCCOc3cccc4ccccc34)c3ccc(F)c-2c31 (single isomer, unassigned; enantiomer 2) [Example 72, (+)-4-Ethyl-3-fluoro-5-methyl-17-{3-[(naphthalen-1-yl)oxy]propyl}-5,7,9,14-tetrahydroindolo[7,1-fg]pyrazolo[3,4-d][2,8]benzoxazacycloundecine-16-carboxylic acid-N-ethylethanamine Salt (Enantiomer 2)] | 5.2e-09 M | 1.5e-05 M | 8.5e-06 M | 1.2e-05 M | 18.9 µM | 9.57e-06 M | 1.2e-05 M | > 2.8e-05 M | 2.6e-05 M |  |
| CCc1nn(CCN2CCOCC2)c2c1-c1c(Cl)ccc3c(CCCOc4cccc5cc(F)ccc45)c(C(=O)O)n(c13)Cc1ccccc1COC2 (single isomer, unassigned; enantiomer 2) [Example 53, (+)-3-Chloro-4-ethyl-17-{3-[(6-fluoronaphthalen-1-yl)oxy]propyl}-6-[2-(morpholin-4-yl)ethyl]-6,7,9,14-tetrahydroindolo[7,1-fg]pyrazolo[3,4-d][2,8]benzoxazacycloundecine-16-carboxylic Acid (Enantiomer 2)] | 8.3e-09 M |  | 2.3e-06 M |  |  |  |  |  | 6.5e-06 M | IC50 (A2780; A2780, 72 hours incubation, CellTiter-Glo, read-out: Antiproli A2780): 8.15e-06 M; EC50 (SUDHL5 [2]; [21]): 1.8e-06 M; IC50 (AMO-1; AMO-1, 72 hours incubation, CellTiter-Glo; several values per example; read-out: Antiproli AMO-1): 9.44 µM; IC50 (MV-4-11; MV-4-11, 72 hours incubation, CellTiter-Glo, read-out: Antiproli MV-4-11): 4.91e-06 M and 8.2e-06 M; IC50 (SUDHL5 [3]; SUDHL5, 72 hours incubation, CellTiter-Glo, median, read-out: Antiproli SUDHL5 [M] (median)): 2.8e-06 M; EC50 (SUDHL10 [4]; [22]): 5.9e-06 M |
| Cc1c2c(nn1C)CN(S(=O)(=O)CCN1CCOCC1)Cc1ccccc1Cn1c(C(=O)O)c(CCCOc3cccc4ccccc34)c3cccc-2c31 (single isomer, unassigned; enantiomer 1) [Example 31, (+)-4,5-Dimethyl-8-[2-(morpholin-4-yl)ethanesulfonyl]-17-{3-[(naphthalen-1-yl)oxy]propyl}-7,8,9,14-tetrahydro-5H-indolo[1,7-bc]pyrazolo[4,3-e][2,8]benzodiazacycloundecine-16-carboxylic acid-N-ethylethanamine Salt (Enantiomer 1)] | 1.3e-08 M |  | 5.3e-06 M | 5.2e-06 M | 5.93 µM |  |  | 9.7e-06 M | > 7.8e-05 M | IC50 (A2780; Homo sapiens, A2780, 72 h, read-out: Antiproli A2780 [M], A2780, 72 hours incubation, CellTiter-Glo): 6.72e-06 M; IC50 (MV-4-11; Homo sapiens, MV4-11, 72 h, read-out: Antiproli MV-4-11 [M], MV-4-11, 72 hours incubation, CellTiter-Glo): 5.49e-06 M; IC50 (SUDHL5 [3]; Homo sapiens, SU-DHL-5, 72 h, read-out: Antiproli SUDHL5 [M] (median), SUDHL5, 72 hours incubation, CellTiter-Glo): 4.8e-06 M |
| Cc1c2c(nn1C)CN(S(=O)(=O)CCN1CCOCC1)Cc1ccccc1Cn1c(C(=O)O)c(CCCOc3cccc4ccccc34)c3cccc-2c31 (single isomer, unassigned; enantiomer 2) [Example 32, (−)-4,5-Dimethyl-8-[2-(morpholin-4-yl)ethanesulfonyl]-17-{3-[(naphthalen-1-yl)oxy]propyl}-7,8,9,14-tetrahydro-5H-indolo[1,7-bc]pyrazolo[4,3-e][2,8]benzodiazacycloundecine-16-carboxylic acid-N-ethylethanamine Salt (Enantiomer 2)] | 1.8e-07 M | 1.08e-05 M | > 3.3e-05 M | > 3.3e-05 M | 13.5 µM | 8.42e-06 M | 4.5e-06 M | > 3.3e-05 M | > 3.3e-05 M |  |
| CCc1nn(C)c2c1-c1c(Cl)ccc3c(CCCOc4cccc5cc(F)ccc45)c(C(=O)O)n(c13)Cc1ccccc1COC2 (racemic) [Example 57, (rac)-3-Chloro-4-ethyl-17-{3-[(6-fluoronaphthalen-1-yl)oxy]propyl}-6-methyl-6,7,9,14-tetrahydro-indolo[7,1-fg]pyrazolo[3,4-d][2,8]benzoxazacycloundecine-16-carboxylic Acid] | 2.7e-09 M |  |  |  |  |  |  |  |  | IC50 (A2780; [6]): 7.02e-06 M; EC50 (SUDHL5 [2]; [7]): 1.5e-06 M; IC50 (AMO-1; [8]): 2.65 µM; IC50 (MV-4-11; [9]): 2.19e-06 M; IC50 (SUDHL5 [3]; [10]): 2.4e-06 M; EC50 (SUDHL10 [4]; [11]): 4.3e-06 M; IC50 (SUDHL10 [5]; [12]): 4.6e-06 M |
| Cc1c2c(nn1C)COCc1cccnc1Cn1c(C(=O)O)c(CCCOc3cccc4ccccc34)c3ccc(Cl)c-2c31 (single isomer, unassigned; enantiomer 2) [Example 41, 3-Chloro-4,5-dimethyl-17-[3-(naphthalen-1-yloxy)propyl]-5,7,9,14-tetrahydropyrazolo-[4′,3′:9,10]pyrido[3′,2′:3,4][1,6]oxazacycloundecino[8,7,6-hi]indole-16-carboxylic acid-N-ethylethanamine Salt (Enantiomer 2)] | 5.8e-09 M | > 3.3e-05 M | 6e-06 M | 6.1e-06 M | 8.4 µM and 11.2 µM | 1.59e-05 M and 8.2e-06 M | 5.2e-06 M | 1.6e-05 M | 1.4e-05 M |  |
| Cc1c2c(nn1C)CNCc1ccccc1Cn1c(C(=O)O)c(CCCOc3cccc4ccccc34)c3cccc-2c31 (single isomer, unassigned; enantiomer 1) [Example 12, 4,5-Dimethyl-17-[3-(naphthalen-1-yloxy)propyl]-7,8,9,14-tetrahydro-5H-indolo[1,7-bc]pyrazolo-[4,3-e][2,8]benzodiazacycloundecine-16-carboxylic acid-Trifluoroacetic Acid Salt (Enantiomer 1)] | 2.9e-09 M |  |  |  |  |  |  |  |  | IC50 (BCL-2): > 20 µM; IC50 (SUDHL5 [1]; read-out: Cytotox SUDHL5 [M] (median), SUDHL5, 5 hours incubation): 1.9e-06 M; EC50 (SUDHL5 [2]; [21]): 2.4e-06 M; IC50 (BCL-XL): > 20 µM; EC50 (SUDHL10 [4]; [22]): 4.9e-06 M; IC50 (SUDHL10 [5]; read-out: Cytotox SUDHL10 [M] (median), SUDHL10, 5 hours incubation): 5e-06 M |
